{"source": "patent US6177475A", "about": "“Methods of using integrin modulators for treatment of inflammation” (priority 1997, dated 2001)", "key": {"[1]": {"tested_on": "111In-labeled neutrophils", "assay": "Neutrophil recruitment to inflamed skin", "assay_type": "in vivo, rat", "details": "50 mg/kg i.v.; for Accumulation of 111In-labeled Neutrophils (mean ± SEM): 2 h", "description": "Chemotactic factors (e.g., C5adesArg) and cytokines, such as tumor necrosis factor α (TNF) or interferon gamma (IFN), induce rapid cutaneous inflammatory reactions, when injected intradermally. These inflammatory reactions are characterized by integrin-mediated migration of ^51 Cr-labeled monocytes and ^111 In-labeled neutrophils. The mechanisms of leukocyte recruitment to the inflammatory loci differ, however, in that chemotactic factors act primarily on leukocytes (by upregulating integrins), whereas TNF and IFN activate endothelial cells (which results, inter alia, in rapid expression of integrin ligands, such as ICAM-1 and VCAM-1).\nAgents used for the induction of the inflammation included rat IFN, recombinant mouse TNF (Genentech, South San Francisco, Calif.), and Zymozan-activated serum (ZAS). ZAS, a source of C5adesArg, was generated by activating complement in normal rat serum with 5 mg/ml of Zymozan A (Sigma Chemical Company, St. Louis, Mo.) at 37° C. for 60 min, after which the zymozan was removed.\nRat monocytes and neutrophils were isolated and labeled as described in Example 6, supra. Male Lewis rats were administered intravenously with 50 mg/kg Ajoene (treatment group) or its vehicle (control), followed within 2-3 min by infusion of the labeled cells. Immediately afterwards, the skin on the back of all animals was shaved and the inflammatory stimuli and the diluent control were injected intradermally at several sites of the skin of each animal. Two hours later, 1 ml of blood was taken from each rat, and the animals were sacrificed. The dorsal skin, including the area of dermal inflammatory reactions, was removed and frozen, and the injected skin sites were punched out with a 12-mm punch and counted in a gamma spectrometer (model 1280, LXB Instruments)."}, "H9 cells": {"tested_on": "H9 cells", "assay": "Disruption of cell clusters formed by H9 cells in culture", "assay_type": "cell-based", "details": "Homo sapiens, 16 to 24 h", "experimental": "T-lymphocytic H9 and Jurkat cells were maintained as suspension cultures in RPMI-1640 medium supplemented with 10% (v/v) heat-inactivated fetal calf serum, 50 micrograms/ml gentamycin and 2 mM L-glutamine. To assess the effects of Ajoene on adhesive interactions of the cells, H9 cells or Jurkat cells were seeded in 96-well flat-bottomed plates (3×10^5cells per well) and cultured in the presence of log 10 dilutions of Ajoene (experiment) or its vehicle (control) for 16 to 24 h.\nThe requirement of integrins for the formation of cell-to-cell contacts in each of these systems has long been established. It is known that in platelets the relevant integrin is GP IIb/IIIa (β3). Neutrophil aggregation is underlain by interactions of β2 integrins (e.g., LFA-1 and/or Mac-1) with their surface counterstructures, while cohesion of T-cells is supported by both β2 integrins and fibronectin-binding β1 integrins (e.g., VLA-4 and VLA-5)."}, "HSV-2 strain G": {"tested_on": "HSV-2 strain G", "assay": "Herpes simplex virus infection of WI-38 fibroblasts (ELISA for HSV antigens)", "assay_type": "cell-based", "details": "Human alphaherpesvirus 2, WI-38, 24 hours", "experimental": "The effect on herpes simplex virus (HSV) infection was assessed using human embryonic lung fibroblast line WI-38 and HSV-2 strain G (derived from a human with the genital infection). Semiconfluent fibroblast monolayers grown in 96-well culture plates (10^5 cells per well) were exposed to serial dilutions of Ajoene or vehicle control, followed immediately by addition of HSV-2 (5000 CCID50 per well). After 24 hours of culturing, the supernatants were examined by ELISA for the content of HSV antigens."}, "sperm cells": {"tested_on": "sperm cells", "assay_type": "cell-based, human", "details": "200 micromoles per l", "experimental": "Human sperm was from a donor with known fertility (No. 113). The sample (freshly taken) was allowed to liquefy, was diluted 3:1 with BWW/HSA, was centrifuged at 325×g for 5 minutes, and was washed once with the same medium. A small portion of the original sample was analyzed (computer-assisted sperm analysis) using the Cell-Soft package. The pellet of washed sperm cells was subjected to the swim-up procedure (1 ml of the medium was added for this purpose). The swim-up was collected (about 0.5 ml), the cells were counted (Makler chamber), and their motility determined (%). The volume of the sample was adjusted with the medium to give 10^7 cells per ml, and the samples were incubated overnight (18 hours) at 37° C. for capacitation. Thereafter, motility and cell density were determined once again, and the sample was divided into three equal portions, each to be subjected to appropriate treatment.\nEquivalent volumes of ethanol and BWW/HSA were added to the two control portions of each cell type (vehicle control and untreated cells, respectively)."}, "[2]": {"tested_on": "VLA-4 (MV3 cells, VCAM-1)", "assay": "VLA-4-dependent adhesion of human melanoma MV3 cells to VCAM-1", "assay_type": "cell-based", "details": "MV-3, 1 h, 37° C.", "experimental": "Microtiter plates were coated with ligands of the integrin VLA-4, i.e., recombinant human VCAM-1 (500 nanograms per well) or the fragment of connective segment of human fibronectin (CS-1), covalently attached to ovalbumin (5 micrograms per well) by overnight incubation (4° C.) with solutions of the proteins in phosphate-buffered saline (PBS). The plates were blocked with 1% bovine serum albumin (BSA) in Hanks' buffered salt solution (HBSS-BSA). The cells (Jurkat or human melanoma MV3) were labeled with the fluorescent dye 5-chloromethylfluorescein diacetate (CMFDA) and introduced into the wells of the plates (10^5 cells per well) together with varying amounts of Ajoene. After incubation at 37° C. for 1 h, the unbound cells were removed by aspiration and the wells washed four times with HBSS-BSA. Thereafter, the bound cells were lysed with 0.5% Triton X-100, and the fluorescence was measured using a Cytofluor 2300 plate reader. The number of adherent cells was calculated from a standard dilution curve of Triton X-100 lysates of the CMFDA-labeled cells."}, "cell-free HIV": {"tested_on": "cell-free HIV", "assay": "Cell-free HIV infection of syncytiotrophoblasts", "assay_type": "cell-based, HIV-1", "details": "200 micromoles per liter and lower concentrations tested", "experimental": "In order to assess the ability of Ajoene to inhibit lymphocyte-mediated HIV infection of syncytiotrophoblasts, HIV-1LBi -infected MOLT-4 cells were added to adherent cultures of uninfected syncytiotrophoblasts in the presence and absence of Ajoene. Various additional control conditions were also established. First, some wells received filtered (0.45 micrometer) supernatant of cell-free HIV from infected cell cultures. Yet other negative controls included syncytiotrophoblasts cultured alone and syncytiotrophoblasts cultured with uninfected MOLT-4 cells. After 24 hours, the cocultures were washed to removed unbound lymphocytes, fixed, permeabilized, stained for viral core antigens (p24 and p55), and viewed under a fluorescence microscope."}}, "data": [{"smiles": "C=CCSSC=CC[S+]([O-])CC=C", "note": "(stereo not drawn) [Ajoene, 4,5,9-trithiadodeca-1,6,11-triene-9-oxide]", "values": [{"measurement": "Accumulation of 111In-labeled Neutrophils (mean ± SEM)", "setting": "[1]; 10 ng TNF, P < 0.006", "value": "1,289 cpm per inflammatory locus"}, {"measurement": "inhibition of neutrophil migration to loci of acute cutaneous inflammation", "setting": "[1]", "value": "30-40%"}, {"measurement": "Accumulation of 111In-labeled Neutrophils (mean ± SEM)", "setting": "[1]; 25% ZAS, P < 0.001", "value": "5,558 cpm per inflammatory locus"}, {"measurement": "Accumulation of 111In-labeled Neutrophils (mean ± SEM)", "setting": "[1]; 50% ZAS, P < 0.001", "value": "7,926 cpm per inflammatory locus"}, {"measurement": "Accumulation of 111In-labeled Neutrophils (mean ± SEM)", "setting": "[1]; 300 U IFN, P < 0.060", "value": "160 cpm per inflammatory locus"}, {"measurement": "Accumulation of 111In-labeled Neutrophils (mean ± SEM)", "setting": "[1]; diluent control stimulus, N.S.", "value": "53 cpm per inflammatory locus"}, {"measurement": "IC50", "setting": "H9 cells", "value": "~0.05", "unit": "µM"}, {"measurement": "IC50", "setting": "HSV-2 strain G", "value": 6, "unit": "µM"}, {"measurement": "IC100", "setting": "HSV-2 strain G; read-out: concentration completely preventing HSV infection", "value": 17, "unit": "µM"}, {"measurement": "toxicity or impaired cellular vitality (motility of sperm cells)", "setting": "sperm cells", "value": "not associated with toxicity or impaired cellular vitality"}, {"measurement": "IC50", "setting": "[2]", "value": 125, "unit": "µM"}, {"measurement": "inhibition of cell-free HIV infection of syncytiotrophoblasts", "setting": "cell-free HIV", "value": "totally inhibited"}]}]}
